Measurements published in patent US20060035317A1, “Effect of treatment with 4,5-dihydroxy-2-cyclopenten-1-one (dhcp) on gene expression and quorum-sensing in bacteria” (priority 2002, published 2006).
“And” between values parts separate entries of the source, which are not always exact repeats. Equal entries are not always repeated.

Columns and labels:
[1] = tested on: AI-2 activity, V. harveyi reporter strain BB170; details: Schauder et al., 2001; cited from earlier work
[2] = tested on: E. coli wild-type strain JM83 (gene expression); experiment: DNA microarray analysis of mRNA levels in DHCP-treated vs control cells; type: cell-based; details: DHCP 250 μM, 8 h
Description: E. coli wild-type strain JM83 [F^− araΔ(lac-proAB) rpsL(str^r)] (Yanisch-Perron et al., 1985) was grown in Luria broth (LB). V. harveyi strains BB152 and BB170 were a gift from Dr. Bonnie Bassler (Princeton University). These strains were grown in AB medium as described previously (Surette et al., 1999).
E. coli cells grown overnight in LB medium were diluted into fresh LB medium. After the growth reached a Klett unit of 50, DHCP was added (250 μM) and growth was further monitored. After growth reached a Klett unit of 90-100, it was diluted 10-fold into a medium containing the same concentration of DHCP as described previously (Phadtare et al., 2001). The cells were harvested after a total of 8 h of incubation with DHCP. […] The total RNA was extracted by the hot phenol method described previously (Sarmientos et al., 1983). It was further purified by RNeasy Minikit (Qiagen) and was then treated with DNase I followed by phenol-chloroform treatment and ethanol precipitation. It was quantified by measuring absorbance at 260 nm. The purity of RNA was confirmed by agarose gel electrophoresis.
The mRNAs were labeled with Cy3-dUTP and Cy5-dUTP (Amersham Pharmacia). Random Hexamer pd(N)6 (Amersham Pharmacia) was used as a primer and the IntelliGene E. coli CHIP Version 1 (Takara Shuzo, Co. Ltd., Japan) the DNA microarray was used. This represents the entire ORF of E. coli K-12 W3110.
The cell densities of the control (untreated) and the DHCP-treated cells used were the same; thus, the changes seen in the microarray were not substantially influenced by the difference in cell densities. RNAs isolated from the respective cells were used to generate probes for hybridization of DNA arrays and the data were quantified as described in the Materials and Methods section of this Example. Calculation of the log expression ratios of the corresponding spots allowed pair-wise comparisons of the relative transcript levels for each of the E. coli genes under the two growth conditions. Only those genes whose expression levels differed by log ratio of at least four were considered. In some cases, genes belonging to same operon or category were considered even if the log ratios differed by the factor of only three or little less than three. Log ratios above zero value indicate induction and below zero value indicate repression by DHCP treatment. […] The results of both methods are in agreement with each other.

O=C1C=CC(O)C1O (stereo not drawn) [DHCP, 4,5-dihydroxy-2-cyclopenten-1-one]
Activity as AI-2 candidate in the screening assay [1]: did not show any activity
Increase of mRNA levels ([2]; Cys regulon genes cysA, cysD, cysH, cysI, cysJ, cysk, cysM, cysN, cysP, cysQ, cysU, cysW): 3-20 times
Ratio (DHCP-treated/control) ([2]; gene CysH (Adenylsulphate reductase)): 6.50
Ratio (DHCP-treated/control) ([2]; gene CysI (Sulfite reductase(NADPH) alpha subunit)): 7.30
Ratio (DHCP-treated/control) ([2]; gene CysJ (Sulfite reductase(NADPH) beta subunit)): 4.70
Ratio (DHCP-treated/control) ([2]; gene CysK (Cysteine synthase)): 20
Ratio (DHCP-treated/control) ([2]; gene CysM (O-acetylserine (thiol)-lyase B)): 3.00
Ratio (DHCP-treated/control) ([2]; gene CysN (Sulfate adenylyltransferase)): 5.00
Ratio (DHCP-treated/control) ([2]; gene CysP (Thiosulfate-binding protein CysP precursor)): 3.55
Ratio (DHCP-treated/control) ([2]; gene CysQ (Ammonium transport protein CysQ)): 3.28
Ratio (DHCP-treated/control) ([2]; gene CysW (Sulfate/thiosulfate transport protein CysW)): 15.00
Ratio (DHCP-treated/control) ([2]; gene EntA (2,3-dihydro-2,3-dihydroxybenzoate)): 0.44
Ratio (DHCP-treated/control) ([2]; gene EntB (Isochorismatase)): 0.23
Ratio (DHCP-treated/control) ([2]; gene EntC (Isochorismate synthase)): 0.45
Ratio (DHCP-treated/control) ([2]; gene EntE (Enterochelin synthetase)): 0.32
Ratio (DHCP-treated/control) ([2]; gene Fbp (Fructose-1,6-biphosphatase)): 4.00
Ratio (DHCP-treated/control) ([2]; gene FruB (PTS system)): 0.12
Ratio (DHCP-treated/control) ([2]; gene FruK (I-phosphofructokinase)): 0.03
Ratio (DHCP-treated/control) ([2]; gene GalM (Aldose 1-epimerase)): 4.00
Ratio (DHCP-treated/control) ([2]; gene Gale (UDP-glucose 4-epimerase)): 4.60
Ratio (DHCP-treated/control) ([2]; gene MarA (Multiple antibiotic resistance protein MarA)): 5
Ratio (DHCP-treated/control) ([2]; gene MdaB (Modulator of drug activity)): 10
Ratio (DHCP-treated/control) ([2]; gene TalA (Patatire transaldolase)): 7.6
Ratio (DHCP-treated/control) ([2]; gene TehB (Tellurite resistance protein TehB)): 5
Ratio (DHCP-treated/control) ([2]; gene YidS (unknown function or class)): 4
Ratio (DHCP-treated/control) ([2]; gene ZipA (Cell division protein)): 4.50
Decrease of mRNA level ([2]; gene ackA): 3.6 times
Ratio (DHCP-treated/control) ([2]; gene ansP (L-asparagine permease)): 0.29
Ratio (DHCP-treated/control) ([2]; gene atoE (Short-chain fatty acids)): 0.17
Ratio (DHCP-treated/control) ([2]; gene atzN (Zinc-transporting ATPase)): 11 and 11.30
Ratio (DHCP-treated/control) ([2]; gene cheA (Chemotaxis protein CheA)): 0.25
Ratio (DHCP-treated/control) ([2]; gene cpxP (Periplasmic protein precursor)): 4.95
Ratio (DHCP-treated/control) ([2]; gene creD (Inner-membrane protein CreD)): 47
Ratio (DHCP-treated/control) ([2]; gene cysU (Sulfate transport system permease)): 4.99
Ratio (DHCP-treated/control) ([2]; gene czcD (Cation efflux protein CzcD)): 3.60
Ratio (DHCP-treated/control) ([2]; gene dps (DNA-binding protein Dps)): 13
Ratio (DHCP-treated/control) ([2]; gene fadL (Long-chain fatty acid transport protein)): 0.10
Ratio (DHCP-treated/control) ([2]; gene fecA (Iron(III) dicitrate transport protein FecA)): 0.16
Ratio (DHCP-treated/control) ([2]; gene fecB (Iron(III) dicitrate-binding protein)): 0.15
Ratio (DHCP-treated/control) ([2]; gene fecC (FecC protein)): 0.21
Ratio (DHCP-treated/control) ([2]; gene fecD (Iron(III) dicitrate transport system protein)): 0.15
Ratio (DHCP-treated/control) ([2]; gene fecE (Iron(III) dicitrate transport protein)): 0.11
Ratio (DHCP-treated/control) ([2]; gene fepA (Ferrienterochelin receptor precursor)): 0.25
Ratio (DHCP-treated/control) ([2]; gene fepC (Ferric enterobactin transport protein FepC)): 0.40
Inhibition of mRNA level ([2]; gene fruB): 8 times
Inhibition of mRNA level ([2]; gene fruK): 33 times
Ratio (DHCP-treated/control) ([2]; gene glf (UDP-galactopyranose mutase)): 0.20
Ratio (DHCP-treated/control) ([2]; gene hdeB (10k-1 protein precursor)): 6.00
Ratio (DHCP-treated/control) ([2]; gene katG (Catalase HPI)): 9.00
Ratio (DHCP-treated/control) ([2]; gene lysP (Lysin-specific permease)): 0.16
Ratio (DHCP-treated/control) ([2]; gene motA (Chemotaxis protein MotA)): 0.18
Ratio (DHCP-treated/control) ([2]; gene motB (Chemotaxis protein MotB)): 0.40
Ratio (DHCP-treated/control) ([2]; gene msyB (Membrane protein)): 4.25
Ratio (DHCP-treated/control) ([2]; gene nmpC (Outer membrane porin protein precursor)): 0.01
Ratio (DHCP-treated/control) ([2]; gene ompA (Outer membrane protein a precursor)): 0.23
Ratio (DHCP-treated/control) ([2]; gene ompC (Outer membrane protein c precursor)): 0.20
Ratio (DHCP-treated/control) ([2]; gene ompF (Outer membrane protein f precursor)): 0.06
Ratio (DHCP-treated/control) ([2]; gene ompT (ProteinaseVII)): 0.11
Ratio (DHCP-treated/control) ([2]; gene osmY (Hyperosmotically induced protein)): 12.00
Ratio (DHCP-treated/control) ([2]; gene otsA (Tehalose-6-phosphate synthase)): 11.00
Ratio (DHCP-treated/control) ([2]; gene pheP (phenylalanine transport protein pheP)): 0.13
Ratio (DHCP-treated/control) ([2]; gene plsX (PlsX protein)): 0.28
Ratio (DHCP-treated/control) ([2]; gene potA (Spermidine/putrescine transport protein A)): 0.13
Ratio (DHCP-treated/control) ([2]; gene potB (Spermidine/putrescine transport system)): 0.13
Ratio (DHCP-treated/control) ([2]; gene potC (Spermidine/putrescine transport system)): 0.20
Ratio (DHCP-treated/control) ([2]; gene potD (Spermidine/putrescine transport protein D)): 0.19
Ratio (DHCP-treated/control) ([2]; gene poxB (Pyruvate dehydrogenase)): 15.00
Ratio (DHCP-treated/control) ([2]; gene rfc (Probably O-antigen polymerase)): 0.23
Ratio (DHCP-treated/control) ([2]; gene rplA (Ribosomal protein L1)): 0.23
Ratio (DHCP-treated/control) ([2]; gene rplB (Ribosomal protein L2)): 0.25
Ratio (DHCP-treated/control) ([2]; gene rplC (Ribosomal protein L3)): 0.28
Ratio (DHCP-treated/control) ([2]; gene rplD (Ribosomal protein L4)): 0.27
Ratio (DHCP-treated/control) ([2]; gene rplE (Ribosomal protein L5)): 0.34
Ratio (DHCP-treated/control) ([2]; gene rplF (Ribosomal protein L6)): 0.30
Ratio (DHCP-treated/control) ([2]; gene rplI (Ribosomal protein L9)): 0.25
Ratio (DHCP-treated/control) ([2]; gene rplJ (Ribosomal protein L10)): 0.28
Ratio (DHCP-treated/control) ([2]; gene rplK (Ribosomal protein L11)): 0.39
Ratio (DHCP-treated/control) ([2]; gene rplM (Ribosomal protein L13)): 0.49
Ratio (DHCP-treated/control) ([2]; gene rplN (Ribosomal protein L14)): 0.44
Ratio (DHCP-treated/control) ([2]; gene rplO (Ribosomal protein L15)): 0.36
Ratio (DHCP-treated/control) ([2]; gene rplP (Ribosomal protein L16)): 0.36
Ratio (DHCP-treated/control) ([2]; gene rplQ (Ribosomal protein L17)): 0.47
Ratio (DHCP-treated/control) ([2]; gene rplR (Ribosomal protein L18)): 0.38
Ratio (DHCP-treated/control) ([2]; gene rplS (Ribosomal protein L19)): 0.35
Ratio (DHCP-treated/control) ([2]; gene rplV (Ribosomal protein L22)): 0.28
Ratio (DHCP-treated/control) ([2]; gene rplW (Ribosomal protein L23)): 0.27
Ratio (DHCP-treated/control) ([2]; gene rplX (Ribosomal protein L24)): 0.31
Ratio (DHCP-treated/control) ([2]; gene rplY (Ribosomal protein L25)): 0.28
Ratio (DHCP-treated/control) ([2]; gene rpmB (Ribosomal protein L28)): 0.45
Ratio (DHCP-treated/control) ([2]; gene rpmE (Ribosomal protein L31)): 0.39
Ratio (DHCP-treated/control) ([2]; gene rpoS (RNP polymerase sigma factor RpoS)): 4
Ratio (DHCP-treated/control) ([2]; gene sdaC (Probable serine transport protein)): 0.25
Ratio (DHCP-treated/control) ([2]; gene secF (Secretion protein SecF)): 0.26
Ratio (DHCP-treated/control) ([2]; gene secG (P12 cytoplasmic membrane protein)): 0.30
Ratio (DHCP-treated/control) ([2]; gene secY (SecY protein)): 0.40
Ratio (DHCP-treated/control) ([2]; gene tsr (Methyl-accepting chemotaxis protein1(mcp-1))): 0.22
Ratio (DHCP-treated/control) ([2]; gene tsx (Nucleoside-specific channel-forming protein)): 0.22
Ratio (DHCP-treated/control) ([2]; gene wrbA (Trp repressor binding protein)): 14.00
Ratio (DHCP-treated/control) ([2]; gene yieI (unknown function or class)): 4
Ratio (DHCP-treated/control) ([2]; gene znu (High-affinity zinc uptake system protein)): 0.13
Induction of CreBC-regulated genes ([2]; genes ackA, pta, radc, malE and trgB): not induced
Induction of genes ([2]; genes astD, tnaB and gabT): not induced
Effect on mRNA levels ([2]; genes cysG and cysS (not in Cys regulon)): not affected
Decrease of mRNA levels ([2]; genes encoding outer membrane proteins (Omp)): 5-15 times
Decrease of mRNA levels ([2]; genes motA, motB and cheA (motor action)): 4-6 times
Change of mRNA levels ([2]; genes parc and parE (topoisomerase IV subunits)): did not change
Change of mRNA levels ([2]; genes rfa, wzb or hha): did not change significantly
Reduction of mRNA levels ([2]; most of the genes encoding ribosomal L proteins): 2-3 times
